In US20230233477A1, “Bi2O3 NANOPARTICLES PREPARED BY THE TOP-DOWN ULTRASONICATION ROUTE AS A BROAD-[sequence] ANTIMICROBIAL TO OVERCOME DRUG RESISTANCE IN ANTIBIOTICS” (KENT STATE UNIVERSITY, priority 2022, published 2023):

Columns and labels:
[1] = system: DRPA (BAA-2108); test: Checkerboard assay with meropenem against DRPA; format: cell-based; settings: Pseudomonas aeruginosa, BAA2108, single agent
Description: The degree of synergism was determined using a checkerboard assay in a 96-well plate (FIG. 4b). […] Combinations of the two treatments were prepared using the 2-fold dilution method to determine the fractional inhibitory concentration (FIC; Table S2). The FIC index is used to determine whether two treatments are synergistic (χ≤0.5), additive (0.5<χ<4) or antagonistic (χ≥4).^38 Checkerboard assay.

[2] = system: PA; format: cell-based, Pseudomonas aeruginosa; settings: sub-lethal concentration, after 13 days
Description: Drug resistance study. The MIC was determined using a broth dilution method. […] The as-prepared bacterial solutions were incubated at 37° C. for 24 h. After incubation, the MIC was determined as the lowest concentration that inhibited visible growth of the tested microorganisms with unaided eyes. This same procedure was done by serial passaging of the bacteria until 30 days. Later on, three types of mutant DSPA were prepared by treating with Ag NPs, ciprofloxacin and meropenem for 15 days.

Row | SMILES | MIC [1] | MIC increase (fold) [2]
1 | C[C@@H](O)[C@H]1C(=O)N2C(C(=O)O)=C(S[C@@H]3CN[C@H](C(=O)N(C)C)C3)[C@H](C)[C@H]12 [meropenem] | 2 µg/mL | 
2 | O=C(O)c1cn(C2CC2)c2cc(N3CCNCC3)c(F)cc2c1=O [ciprofloxacin] |  | 32 fold
